Data: publication PMC8003416, “Modulation of Human Phenylalanine Hydroxylase by 3-Hydroxyquinolin-2(1H)-One Derivatives” (Biomolecules, 2021)

How the values were obtained:
[1] = biological target: T1, human phenylalanine hydroxylase (hPAH) (Homo sapiens, UniProt P00439); test: hPAH enzymatic activity assay (NA, 3HQ-A and Phe/3HQ-A conditions); type: biochemical; conditions: 100 μM compound; for hPAH activity vs respective control: all three conditions (NA, 3HQ-A, Phe/3HQ-A); for fold activation by L-Phe (Phe/3HQ-A vs. 3HQ-A): 100 μM L-Phe
T1 construct: Recombinant full-length wild-type (WT) hPAH was expressed in E. coli Top10 cells in fusion with a hexa-histidyl peptide; made in house; host or cells: E. coli Top10
T1 sequence (P00439 1-452): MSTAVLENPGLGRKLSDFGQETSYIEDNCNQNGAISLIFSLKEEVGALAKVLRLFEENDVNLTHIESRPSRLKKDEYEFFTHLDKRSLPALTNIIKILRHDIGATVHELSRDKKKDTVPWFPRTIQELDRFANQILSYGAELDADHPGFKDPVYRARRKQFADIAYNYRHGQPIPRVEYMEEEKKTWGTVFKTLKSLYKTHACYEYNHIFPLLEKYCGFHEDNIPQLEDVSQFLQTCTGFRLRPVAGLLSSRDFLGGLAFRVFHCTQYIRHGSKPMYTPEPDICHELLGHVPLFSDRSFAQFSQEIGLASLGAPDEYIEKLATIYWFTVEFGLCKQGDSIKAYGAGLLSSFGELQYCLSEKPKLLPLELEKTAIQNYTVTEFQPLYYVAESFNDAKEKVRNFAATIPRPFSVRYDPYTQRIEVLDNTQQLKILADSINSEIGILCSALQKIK
Method: The hPAH activity was measured essentially as previously described. Briefly, the enzymatic reaction was performed in a 200 μL final volume, containing 250 mM Na-HEPES, pH 7, 0.1 mg/mL catalase (Sigma-Aldrich; St. Louis, MO, USA), 5 μg (final concentration of 0.112 μM of tetramer) of recombinant hPAH tetramers and 100 μM (NH4)2Fe(II)SO4. Using 100 μM L-Phe and 100 μM of tested compound, three experimental conditions were used to study the compounds’ modulatory effect, namely: non activated (NA), 3HQ-activated (3HQ-A) and substrate/3HQ-activated (Phe/3HQ-A) (Supplementary Figure S3). The reaction was started by addition of 75 μM BH4 (Schircks Laboratories; Bauma, Switzerland) prepared in 5 mM ascorbic acid. In the NA assay, the L-Phe substrate and tested compounds were added together with 75 µM BH4 at the start of the hydroxylation reaction. In the 3HQ-A condition, hPAH was pre-incubated with the tested compound for 4 min at 25 °C and the reaction was started by the addition of BH4 together with L-Phe. In the Phe/3HQ-A condition, hPAH was pre-incubated simultaneously with L-Phe and the tested compound (4 min, 25 °C). Appropriate control reactions were performed where the compounds were omitted and 1% DMSO was used. Kinetic parameters were determined using variable concentrations of L-Phe (25 to 2500 μM) and fixed concentrations of BH4 (75 μM) and tested compound (100 μM). After a 1-min incubation, the reaction was stopped, and the amount of L-Tyr produced was quantified by HPLC as previously described. The specific hPAH enzymatic activity is expressed as nmol of L-Tyr produced during 1 min per mg of protein (nmol L-Tyr.min^−1.mg^−1). The steady-state kinetic data were analyzed by nonlinear regression analysis using GraphPad Prism (La Jolla, CA, USA). Data was fitted to the modified Hill equation accounting for cooperative substrate binding as well as substrate inhibition (Equation (1)), to the modified Michaelis–Menten equation which accounts for substrate inhibition (Equation (2)) and to the non-modified Michaelis–Menten equation:v = (Vmax + Vi ([S]^x/Ki^x))/(1 + (K^h/[S]^h) + ([S]^x/Ki^x))(1) v = (Vmax [S])/(Km + [S](1 + [S]/Ki))(2)

[2] = biological target: T1, human phenylalanine hydroxylase (hPAH); test: Differential scanning fluorimetry (thermal denaturation); type: binding; conditions: for Tm1 (regulatory domain) / Tm2 (catalytic domain): 100 μM compound in 1% DMSO; for Tm1 (regulatory domain): control 43.4 ± 0.6; for Tm2 (catalytic domain): control 53.5 ± 0.4; for ΔTm1 (regulatory domain) / ΔTm2 (catalytic domain): 100 μM compound vs 1% DMSO control, * S.D. < 0.01; for effect on thermal stability of regulatory and catalytic domains (|ΔTm| ≥ 2 °C): 100 μM compound
Method: Thermal denaturation profiles of recombinant hPAH were obtained by differential scanning fluorimetry (DSF) in a C1000 Touch thermal cycler equipped with a CFX96 optical reaction module (Bio-Rad; Hercules, CA, USA) as previously described. Briefly, DSF assays (n = 3) were performed using 100 μg/mL hPAH tetramers (final concentration of 0.45 μM of tetramer), SYPRO Orange (5000-fold commercially available stock solution; Invitrogen; Carlsbad, CA, USA) at a 2.5-x final concentration and ramping the temperature from 20 to 90 °C, at 1 °C/min. Fluorescence data were acquired using the FRET channel. Data were processed using CFX Manager Software V3.0 (Bio-Rad) and the GraphPad Prism. Temperature scan curves were fitted to a biphasic dose–response function and the Tm values were obtained from the midpoint of the first (Tm1) and second transitions (Tm2) corresponding, respectively, to the thermal denaturation of the regulatory and catalytic domains. The Tm values in the presence of 3HQ were compared to those obtained in the presence of 1% DMSO (vehicle control) and a change in the Tm was considered significant when the |ΔTm| ≥ 2 °C [22].

hPAH = biological target: hPAH; parameters: method as in PMID 9843368; conditions: ref [36]; read-out: KD (high affinity binding to hPAH); cited from earlier work

SMILES	hPAH activity vs respective control [1]	Tm1 (regulatory domain) [2] [°C]	Tm2 (catalytic domain) [2] [°C]	ΔTm1 (regulatory domain) [2]	ΔTm2 (catalytic domain) [2]	effect on thermal stability of regulatory and catalytic domains (|ΔTm| ≥ 2 °C) [2]	fold enzyme activation by compound (3HQ-A vs. NA) [1]	fold activation by L-Phe (Phe/3HQ-A vs. 3HQ-A) [1]	remaining activity at 100 µM ([1]; NA (non-activated) condition, read-out: hPAH residual activity vs control) [%]	Kd (hPAH) [nM]
CCOC(=O)[C@H](Cc1ccccc1)NC(=O)c1c(O)c(=O)[nH]c2ccccc12 [Compound 1]	high decreases in enzyme activity	39.4 ± 1.0	55.9 ± 0.2	-3.9 ± 0.10 °C	+2.4 ± 0.01 °C					
CCOC(=O)[C@H](Cc1ccccc1)NC(=O)c1c(O)c(=O)[nH]c2ccc(Cl)cc12 [Compound 2]	high decreases in enzyme activity	35.6 ± 0.2	43.0 ± 0.4	-7.8 ± 0.04 °C	-10.5 ± 0.11 °C	destabilized the regulatory and catalytic domains				
CCOC(=O)[C@H](Cc1ccccc1)NC(=O)c1c(O)c(=O)n(Cc2ccccc2)c2ccc(OC(F)(F)F)cc12 [Compound 4]	high decreases in enzyme activity	37.8 ± 1.9	42.7 ± 0.3	-5.6 ± 0.28 °C	-10.8 ± 0.08 °C	destabilized the regulatory and catalytic domains				
O=C(Nc1ccccc1)c1c(O)c(=O)[nH]c2ccc(OC(F)(F)F)cc12 [Compound 5]		38.7 ± 0.2	42.3 ± 0.2	-4.7 ± 0.02 °C	-11.2 ± 0.05 °C	destabilized the regulatory and catalytic domains				
O=C(NCc1ccccc1)c1c(O)c(=O)[nH]c2ccc(OC(F)(F)F)cc12 [Compound 6]		42.5 ± 0.2	53.0 ± 0.1	-0.9 ± 0.01 °C	-0.5 ± 0.01 °C					
CN(Cc1ccccc1)C(=O)c1c(O)c(=O)[nH]c2ccc(OC(F)(F)F)cc12 [Compound 7]		43.3 ± 0.1	53.7 ± 0.1		+0.2 ± 0.01 °C					
COC(=O)[C@H](CC(C)C)NC(=O)c1c(O)c(=O)[nH]c2ccc(OC(F)(F)F)cc12 [Compound 10]		43.1 ± 0.5	53.4 ± 0.2	-0.3 ± 0.01 °C			0.9 fold	1.4 fold	68	
O=C(CNC(=O)c1c(O)c(=O)[nH]c2ccc(OC(F)(F)F)cc12)OCc1ccccc1 [Compound 12]		43.8 ± 0.1	53.1 ± 0.1	0.4 ± 0.01 °C	-0.4 ± 0.01 °C		0.6 fold	allowing substrate activation		
CCOC(=O)CNC(=O)c1c(O)c(=O)n(Cc2ccccc2)c2ccccc12 [Compound 13]		44.6 ± 0.4	53.5 ± 0.1	+1.2 ± 0.01 °C	+0.1 ± 0.01 °C		decreased enzyme activity			
O=C(NCc1ccccc1)c1c(O)c(=O)n(Cc2ccccc2)c2ccccc12 [Compound 14]		44.8 ± 0.1	53.5 ± 0.1	+1.4 ± 0.01 °C	+0.1 ± 0.01 °C			did not allow substrate activation		
O=C(c1c(O)c(=O)[nH]c2ccc(OC(F)(F)F)cc12)N1CCCC1 [Compound 15]		44.5 ± 0.8	53.3 ± 0.3	+1.1 ± 0.02 °C	-0.2 ± 0.01 °C					
O=C(c1c(O)c(=O)[nH]c2ccc(OC(F)(F)F)cc12)N1CCCCC1 [Compound 16]		45.0 ± 1.9	53.2 ± 0.8	+1.7 ± 0.07 °C	-0.3 ± 0.01 °C					
CC(C)(C)OC(=O)c1c(O)c(=O)[nH]c2ccc(OC(F)(F)F)cc12 [Compound 17]		44.6 ± 0.2	53.7 ± 0.2	+1.2 ± 0.01 °C	+0.2 ± 0.01 °C					
CC(OC(=O)c1c(O)c(=O)[nH]c2ccc(OC(F)(F)F)cc12)c1ccccc1 (stereo not drawn) [Compound 18]		40.0 ± 1.0	44.0 ± 1.4		-9.6 ± 0.31 °C	destabilized the regulatory and catalytic domains				
CC(CCc1ccccc1)OC(=O)c1c(O)c(=O)[nH]c2ccc(OC(F)(F)F)cc12 (stereo not drawn) [Compound 19]		33.0 ± 0.3	35.5 ± 0.1	-10.4 ± 0.09 °C		destabilized the regulatory and catalytic domains				
O=C(c1ccccc1)c1c(O)c(=O)[nH]c2ccc(OC(F)(F)F)cc12 [Compound 20]		44.2 ± 0.1	53.8 ± 0.1	+0.8± 0.01 °C	+0.31± 0.01 °C					
CNC[C@H](O)c1ccc(O)c(O)c1 [adrenaline]										< 1000
NCCc1ccc(O)c(O)c1 [dopamine]										< 1000
NC[C@H](O)c1ccc(O)c(O)c1 [noradrenaline]										< 1000
